Test results reported in patent EP3131902B1, “COMPOUNDS AS MODULATORS OF ROR GAMMA” (Boehringer Ingelheim International GmbH, priority 2014, dated 2015).

target: T1, RORγ (Homo sapiens, UniProt P51449); assay: Reporter Gene Assay (RGA): nuclear receptor transactivation assay, inhibition of RORγ transactivation of a luciferase reporter in transiently transfected HEK 293 cells; type: cell-based; settings: not given
T1 construct: expressed in transfected cells; host or cells: HEK 293 cells, transiently transfected
T1 sequence (P51449 269-508 limits assumed): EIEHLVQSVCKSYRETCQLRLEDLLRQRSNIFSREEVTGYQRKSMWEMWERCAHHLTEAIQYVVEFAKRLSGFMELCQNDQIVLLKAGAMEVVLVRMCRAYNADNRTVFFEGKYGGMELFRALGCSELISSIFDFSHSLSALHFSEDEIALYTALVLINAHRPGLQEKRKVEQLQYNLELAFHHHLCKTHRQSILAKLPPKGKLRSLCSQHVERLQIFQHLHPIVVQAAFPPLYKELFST

Row | Compound | IC50 [nM]
1 | CCS(=O)(=O)c1ccc(CNc2nc3cnc(-c4c(C5CC5)ncnc4C4CC4)nc3n(C3CC3)c2=O)cc1 [Example 38] | 1100

same assay, conditions: read-out: RGA IC50

Row | Compound | IC50 [nM]
2 | CCC(C)n1c(=O)c(NCc2ccc(S(C)(=O)=O)cc2)nc2cnc(-c3c(OC)ncnc3C3CC3)nc21 (stereo not shown) [Example 26] | 420
3 | CC[C@@H](C)n1c(=O)c(NCc2ccc(S(N)(=O)=O)cn2)nc2cnc(-c3c(OC)ncnc3C3CC3)nc21 [Example 236] | 185
4 | CCS(=O)(=O)N1CC2(CC(CNc3nc4cnc(-c5c(OC)ncnc5C5CC5)nc4n([C@@H](C)C4CC4)c3=O)C2)C1 [Example 152] | 470
5 | Cc1ncnc(C2CC2)c1-c1ncc2nc(NCc3ccc(S(C)(=O)=O)cn3)c(=O)n(C3CCC3)c2n1 [Example 242] | 395
6 | CCS(=O)(=O)N[C@H]1C[C@H](CNc2nc3cnc(-c4c(C)ncnc4C4CC4)nc3n([C@@H](C)C3CC3)c2=O)C1 [Example 202] | 455
7 | Cc1ncnc(C2CC2)c1-c1ncc2nc(NCC3CCN(S(=O)(=O)CC#N)CC3)c(=O)n([C@@H](C)C3CC3)c2n1 [Example 165] | 157
8 | CCS(=O)(=O)c1ccc(CNc2nc3cnc(-c4c(C)nc(N)nc4C4CC4)nc3n([C@H](C)C3CCC3)c2=O)nc1 [Example 233] | 155
9 | CO[C@H]1CCC[C@@H]1n1c(=O)c(NCc2ccc(S(C)(=O)=O)cc2)nc2cnc(-c3c(C)ncnc3C3CC3)nc21 [Example 229] | 530
10 | CS(=O)(=O)c1ccc(CNc2nc3cnc(-c4c(C5CC5)ncnc4C4CC4)nc3n(C3CC3)c2=O)cc1 [Example 46] | 3000
11 | Cc1ncnc(C2CC2)c1-c1ncc2nc(NCc3ccc(S(C)(=N)=O)cc3)c(=O)n([C@@H](C)C3CC3)c2n1 (stereo partly shown) [Example 160] | 285
12 | CCS(=O)(=O)c1ccc(CNc2nc3cnc(-c4c(C)ncnc4C4CC4)nc3n([C@@H](C)C(C)C)c2=O)nc1 [Example 66] | 410
13 | CCc1ncnc(C2CC2)c1-c1ncc2nc(NCc3ccc(S(=O)(=O)CC)cc3)c(=O)n([C@H]3CCOC3)c2n1 [Example 175] | 380
14 | CCS(=O)(=O)c1cnc(CNc2nc3cnc(-c4c(C)ncnc4C4CC4)nc3n([C@@H](C)C(F)(F)F)c2=O)nc1 [Example 188] | 315
15 | CC[C@@H](C)n1c(=O)c(NCc2ccc(S(C)(=O)=O)cc2)nc2cnc(-c3c(OC)ncnc3C3CC3)nc21 [Example 190] | 130
16 | CCS(=O)(=O)c1ccc(CNc2nc3cnc(-c4c(C5CC5)ncnc4C4CC4)nc3n([C@@H](C)C(C)C)c2=O)nc1 [Example 7] | 280
17 | CCc1nc(N)nc(C2CC2)c1-c1ncc2nc(NCc3ccc(S(=O)(=O)C4CC4)cn3)c(=O)n([C@@H](C)C3CC3)c2n1 [Example 251] | 158
18 | CC[C@@H](C)n1c(=O)c(NCc2ncc(S(=O)(=O)CC)cn2)nc2cnc(-c3c(C4CC4)ncnc3C3CC3)nc21 [Example 186] | 150
19 | CCS(=O)(=O)c1ccc(CNc2nc3cnc(-c4c(OC)ncnc4C4CC4)nc3n(C3(C#N)CC3)c2=O)nc1 [Example 50] | 4400
20 | CCS(=O)(=O)N1CCC(CNc2nc3cnc(-c4c(C)ncnc4C4CC4)nc3n(C(C)C)c2=O)CC1 [Example 130] | 285
21 | CNS(=O)(=O)c1ccc(CNc2nc3cnc(-c4c(OC)ncnc4C4CC4)nc3n(C3CCC3)c2=O)nc1 [Example 239] | 205
22 | Cc1ncnc(C2CC2)c1-c1ncc2nc(NCc3ccc(S(C)(=N)=O)cc3)c(=O)n([C@@H](C)C3CCC3)c2n1 (stereo partly shown) [Example 232] | 180
